# From ChEMBL document CHEMBL1201862, “PubChem BioAssay data set” (2004)
# Values joined by “and” are separate entries in the source; they are usually repeats but may differ in a detail not shown here. Identical values can stand only once.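 Protocol summary: plate cells (96-well), add compound at 5 concentrations, incubate 48 h, interpolate endpoints linearly. The concentration for 50% growth inhibition is given as GI50.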 Active and inactive are the calls of the source. No stated cut-off is given here; in the data, active = GI50 up to about 1.1 µM and inactive = higher.
# Columns and labels:
# Test in all cases: NCI-60 cell line screen, 48 h
# OVCAR-3 = system: OVCAR-3
# SNB-75 = system: SNB-75
# SN12C = system: SN12C
# COLO 205 = system: COLO 205
# TK-10 = system: TK-10
# SW-620 = system: SW-620
# RPMI-8226 = system: RPMI-8226
# HL-60 = system: HL-60
# CCRF-CEM = system: CCRF-CEM
# UACC-62 = system: UACC-62
# SF-268 = system: SF-268
# A549 = system: A549
# BT-549 = system: BT-549
# ACHN = system: ACHN
# NCI-H23 = system: NCI-H23
# MDA-MB-231 = system: MDA-MB-231
# HT-29 = system: HT-29
# MDA-MB-435 = system: MDA-MB-435
# NCI-H226 = system: NCI-H226
# CAKI-1 = system: CAKI-1
SMILES,GI50 (OVCAR-3),GI50 (SNB-75),GI50 (SN12C),GI50 (COLO 205),GI50 (TK-10),GI50 (SW-620),GI50 (RPMI-8226),GI50 (HL-60),GI50 (CCRF-CEM),GI50 (UACC-62),GI50 (SF-268),GI50 (A549),GI50 (BT-549),GI50 (ACHN),GI50 (NCI-H23),GI50 (MDA-MB-231),GI50 (HT-29),GI50 (MDA-MB-435),GI50 (NCI-H226),GI50 (CAKI-1)
CC(=O)CCC(=O)C(=[N+]=[N-])S(=O)(=O)c1ccccc1,> 100 µM (inactive),> 100 µM (inactive),> 100 µM (inactive),> 100 µM (inactive),> 100 µM (inactive),> 100 µM (inactive),> 100 µM (inactive),> 100 µM (inactive),> 100 µM (inactive),> 100 µM (inactive),> 100 µM (inactive),> 100 µM (inactive),> 100 µM (inactive),> 100 µM (inactive),> 100 µM (inactive),> 100 µM (inactive),> 100 µM (inactive),> 100 µM (inactive),–,–
O=c1[nH]c(=O)n(C2OC(CO)C(O)C2O)c2nc(-c3ccc(-c4ccccc4)cc3)cnc12 (stereo not given),–,> 100 µM (inactive),> 100 µM (inactive),> 100 µM (inactive),> 100 µM (inactive),> 100 µM (inactive),> 100 µM (inactive),–,> 100 µM (inactive),> 100 µM (inactive),> 100 µM (inactive),> 100 µM (inactive),> 100 µM (inactive),> 100 µM (inactive),> 100 µM (inactive),> 100 µM (inactive),> 100 µM (inactive),> 100 µM (inactive),> 100 µM (inactive),> 100 µM (inactive)
O=c1c(/C=C/c2c(O)ccc3ccccc23)nnc2sc(-c3cccc([N+](=O)[O-])c3)nn12,2.73 µM (inactive),–,9.33 µM (inactive),26.5 µM (inactive),9.29 µM (inactive),3.03 µM (inactive),14.6 µM (inactive),2.62 µM (inactive),–,11.4 µM (inactive),8.93 µM (inactive),–,17.2 µM (inactive),5.12 µM (inactive),19.1 µM (inactive),7.33 µM (inactive),36.4 µM (inactive),17.1 µM (inactive),–,19.1 µM (inactive)
CCNC(=O)CCC(C)[C@H]1CCC2C3C(C[C@H](OC(C)=O)[C@@]21C)[C@@]1(C)CCC2(C[C@H]1C[C@H]3OC(C)=O)OOC1(CCC(C)CC1)OO2 (stereo not given in full),1.55 µM (inactive) and 1.59 µM (inactive),1.59 µM (inactive) and 1.95 µM (inactive),2.52 µM (inactive) and 1.83 µM (inactive),1.53 µM (inactive) and 1.65 µM (inactive),2.3 µM (inactive) and 2.43 µM (inactive),4.6 µM (inactive) and 2.74 µM (inactive),–,1.49 µM (inactive) and 1.97 µM (inactive),710 nM (active) and 1.24 µM (inactive),1.69 µM (inactive) and 2.26 µM (inactive),–,1.5 µM (inactive) and 1.49 µM (inactive),2.03 µM (inactive) and 1.57 µM (inactive),1.55 µM (inactive) and 1.63 µM (inactive),2.13 µM (inactive) and 2.2 µM (inactive),2.1 µM (inactive),–,1.79 µM (inactive) and 1.72 µM (inactive),1.52 µM (inactive) and 1.69 µM (inactive),1.5 µM (inactive) and 820 nM (active)
Cc1c2c(n(CCc3ccccc3)c1C)NN=C(C#N)S2(=O)=O,> 100 µM (inactive),> 100 µM (inactive),> 100 µM (inactive),> 100 µM (inactive),> 100 µM (inactive),> 100 µM (inactive),> 100 µM (inactive),–,–,> 100 µM (inactive),> 100 µM (inactive),> 100 µM (inactive),> 100 µM (inactive),> 100 µM (inactive),> 100 µM (inactive),> 100 µM (inactive),> 100 µM (inactive),> 100 µM (inactive),–,–
CC(C)C1C(=O)N2CCCC2C2(O)OC(NC(=O)C3C=C4c5cccc6[nH]cc(c56)CC4N(C)C3)(C(C)C)C(=O)N12 (stereo not given),17.9 µM (inactive),15.3 µM (inactive),35.4 µM (inactive),20.7 µM (inactive),21.8 µM (inactive),30.1 µM (inactive),16.2 µM (inactive),27 µM (inactive),24.7 µM (inactive),18.1 µM (inactive),41.1 µM (inactive),20.7 µM (inactive),25.4 µM (inactive),18.9 µM (inactive),26.9 µM (inactive),15.9 µM (inactive),18 µM (inactive),29.2 µM (inactive),–,16.7 µM (inactive)
COCN1C(=O)[C@@H]2CCCN2C(=O)c2cc(N)ccc21,–,> 100 µM (inactive),> 100 µM (inactive),< 0.01 µM (active),> 100 µM (inactive),> 100 µM (inactive),–,–,–,> 100 µM (inactive),> 100 µM (inactive),> 100 µM (inactive),> 100 µM (inactive),> 100 µM (inactive),> 100 µM (inactive),> 100 µM (inactive),> 100 µM (inactive),> 100 µM (inactive),–,> 100 µM (inactive)
CC(=O)NC(CSC1=C2NC(=O)\C=C/C=C\C=C/C(C)C(O)CC(=O)/C(C)=C\CC(O)/C=C\C(C)C(O)C(C)C=C(C)C(=O)c3c(O)c(C)cc(c3C1=O)C2=O)C(=O)O (stereo not given),96.6 µM (inactive),28.6 µM (inactive),79.1 µM (inactive),21.7 µM (inactive),> 100 µM (inactive),45.7 µM (inactive),–,23.6 µM (inactive),22.3 µM (inactive),51.5 µM (inactive),–,> 100 µM (inactive),> 100 µM (inactive),66.4 µM (inactive),> 100 µM (inactive),24.6 µM (inactive),47.2 µM (inactive),> 100 µM (inactive),> 100 µM (inactive),> 100 µM (inactive)
NCCCC[C@H](N)C(=O)Nc1ccc(-c2nc3ccccc3s2)cc1,20.4 µM (inactive),16.8 µM (inactive),24.8 µM (inactive),18.7 µM (inactive),57.7 µM (inactive),16.9 µM (inactive),–,–,9.89 µM (inactive),21.7 µM (inactive),23.2 µM (inactive),31.2 µM (inactive),28.6 µM (inactive),20.3 µM (inactive),25.6 µM (inactive),15.1 µM (inactive),16.5 µM (inactive),18.7 µM (inactive),25.6 µM (inactive),37.9 µM (inactive)
O=C(Cc1ccc2ccccc2c1)NCc1ccc(C(=O)NCCc2ccccc2)cc1,> 100 µM (inactive),> 100 µM (inactive),> 100 µM (inactive),> 100 µM (inactive),> 100 µM (inactive),> 100 µM (inactive),> 100 µM (inactive),–,20.3 µM (inactive),> 100 µM (inactive),> 100 µM (inactive),> 100 µM (inactive),> 100 µM (inactive),> 100 µM (inactive),> 100 µM (inactive),> 100 µM (inactive),94.4 µM (inactive),> 100 µM (inactive),> 100 µM (inactive),> 100 µM (inactive)
Cn1nc2ccc([N+](=O)[O-])cc2[n+]1[O-],> 100 µM (inactive),> 100 µM (inactive),22.4 µM (inactive),> 100 µM (inactive),> 100 µM (inactive),–,–,–,> 100 µM (inactive),> 100 µM (inactive),–,> 100 µM (inactive),> 100 µM (inactive),> 100 µM (inactive),> 100 µM (inactive),> 100 µM (inactive),> 100 µM (inactive),> 100 µM (inactive),> 100 µM (inactive),> 100 µM (inactive)
CCN1C(=O)C(=C/C=C/c2ccc(OC)cc2)C(=O)N(CC)C1=S,16.6 µM (inactive),–,18.2 µM (inactive),18.5 µM (inactive),17.5 µM (inactive),20.8 µM (inactive),33.6 µM (inactive),7.5 µM (inactive),20.6 µM (inactive),16.7 µM (inactive),24.6 µM (inactive),> 100 µM (inactive),26.7 µM (inactive),17.7 µM (inactive),> 100 µM (inactive),19.8 µM (inactive),22.6 µM (inactive),21.6 µM (inactive),32.9 µM (inactive),21.7 µM (inactive)
CN(Cc1cnc2nc(N)nc(N)c2n1)c1ccc(C(=O)NC(CCS(=O)(=O)O)C(=O)O)cc1 (stereo not given),3.46 µM (inactive),–,4.57 µM (inactive),> 72.3 µM (inactive),> 100 µM (inactive),0.379 µM (active),–,< 0.0336 µM (active),0.0312 µM (active),0.508 µM (active),0.465 µM (active),0.421 µM (active),> 100 µM (inactive),0.527 µM (active),1.88 µM (inactive),> 100 µM (inactive),4.02 µM (inactive),0.426 µM (active),15.7 µM (inactive),> 100 µM (inactive)
CC(=O)Oc1ccc(/C=C/C(=O)OCCCOC(=O)/C=C/c2ccc(OC(C)=O)c(OC(C)=O)c2)cc1OC(C)=O,> 100 µM (inactive),> 100 µM (inactive),> 100 µM (inactive),> 100 µM (inactive),> 100 µM (inactive),> 100 µM (inactive),> 100 µM (inactive),< 0.01 µM (active),–,> 100 µM (inactive),> 100 µM (inactive),> 100 µM (inactive),> 100 µM (inactive),> 100 µM (inactive),> 100 µM (inactive),> 100 µM (inactive),> 100 µM (inactive),> 100 µM (inactive),–,> 100 µM (inactive)
